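Following 48 hours of exposure in 96-well plates, responses at five concentrations were used to interpolate endpoints linearly. GI50 marks 50% less growth.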 Active and inactive are the calls of the source. No stated cut-off is given here; in the data, active = GI50 up to about 1.1 µM and inactive = higher.

Some test systems named below: PC-3; M14; RXF 393; SN12C; HCC 2998; U-251; OVCAR-8; OVCAR-4; IGROV-1; TK-10; DU-145; HL-60; 786-0; SNB-75; NCI-H226; HOP-62; SK-OV-3; SK-MEL-28; NCI/ADR-RES; Hs-578T.
Holding throughout (test): NCI-60 cell line screen, 48 h

Turning to `Cc1ccc(-c2[nH]c(=O)n(C3OC(CO)C(O)C(O)C3O)c(=O)c2C#N)cc1` (stereo not given), the GI50 in the experiment with PC-3, in the experiment on M14, with RXF 393, in the experiment on SN12C, in the experiment with HCC 2998 and with U-251 was > 100 µM (inactive) in each case. The GI50 in the experiment on OVCAR-8, with OVCAR-4, in the experiment with IGROV-1, in the experiment on TK-10, in the experiment with DU-145 and with HL-60 was > 100 µM (inactive) each time. Further, the GI50 in the experiment with 786-0, in the experiment on SNB-75, in the experiment with NCI-H226, with HOP-62, with SK-OV-3 and in the experiment on SK-MEL-28 was > 100 µM (inactive) in each case. The GI50 in the experiment on NCI/ADR-RES and with Hs-578T was > 100 µM (inactive) in each case.

As to `CC(C)(C)OC(=O)N/C=C1\C(=O)Oc2ccccc2C1=O`, the GI50 is 32.3 µM (inactive) in the experiment on PC-3; 35.6 µM (inactive) in the experiment on M14; 23.2 µM (inactive) with RXF 393; 24.5 µM (inactive) in the experiment on SN12C; 54 µM (inactive) with HCC 2998; 19.8 µM (inactive) in the experiment with U-251. Further, the GI50 was 40.6 µM (inactive) in the experiment with OVCAR-8; 33 µM (inactive) with OVCAR-4; 42.5 µM (inactive) with IGROV-1; 14.6 µM (inactive) in the experiment with TK-10; 8.67 µM (inactive) with DU-145; > 100 µM (inactive) with HL-60. The GI50 was 34.6 µM (inactive) with 786-0; 23.5 µM (inactive) in the experiment on SNB-75; 20.7 µM (inactive) in the experiment with NCI-H226; 17.1 µM (inactive) in the experiment with HOP-62; 0.0294 µM (active) in the experiment with SK-OV-3; 45.1 µM (inactive) in the experiment with SK-MEL-28. In addition, the GI50 in the experiment on NCI/ADR-RES was 41.4 µM (inactive); with Hs-578T, 13.9 µM (inactive).

On to `COc1ccc2nc(N/N=C/c3ccc(C)s3)cc(C)c2c1`, for which the GI50 with PC-3 is 17.1 µM (inactive); in the experiment with M14, 16.6 µM (inactive); in the experiment with RXF 393, 19.2 µM (inactive); in the experiment with SN12C, 17.9 µM (inactive); in the experiment on HCC 2998 it was 16 µM (inactive); in the experiment with U-251, 21.1 µM (inactive). The GI50 in the experiment on OVCAR-8 was 19.5 µM (inactive); with OVCAR-4, 13.9 µM (inactive); in the experiment on IGROV-1, 26.2 µM (inactive); with TK-10, 21.6 µM (inactive); in the experiment with DU-145, 17.7 µM (inactive); in the experiment on HL-60, 27.2 µM (inactive). Besides, the GI50 in the experiment on 786-0 was 13 µM (inactive); in the experiment on SNB-75, 24.3 µM (inactive); with NCI-H226 it was 14.8 µM (inactive); in the experiment with HOP-62, 20.1 µM (inactive); in the experiment on SK-OV-3, 22.9 µM (inactive); with SK-MEL-28 it was 26.5 µM (inactive). Also, the GI50 with NCI/ADR-RES is 19.7 µM (inactive); in the experiment on Hs-578T it was 22.1 µM (inactive).

Consider `O=C1/C(=C/C=C/c2ccccc2)CCC1CNc1ccccc1` (stereo not given), for which the GI50 is 36 µM (inactive) in the experiment on PC-3; 30.2 µM (inactive) in the experiment on M14; 19.8 µM (inactive) in the experiment on RXF 393; 23.2 µM (inactive) with SN12C; > 68.5 µM (inactive) in the experiment on HCC 2998; > 59.3 µM (inactive) in the experiment on U-251. In addition, the GI50 in the experiment on OVCAR-8 was 37.4 µM (inactive); with OVCAR-4, 99.3 µM (inactive); in the experiment with IGROV-1, 23.4 µM (inactive); in the experiment on TK-10 it was 33 µM (inactive); in the experiment with DU-145, > 93.3 µM (inactive); with HL-60, 4.07 µM (inactive). The GI50 in the experiment on 786-0 was 16.6 µM (inactive); with SNB-75 it was > 100 µM (inactive); with NCI-H226 it was > 100 µM (inactive); in the experiment on HOP-62, > 100 µM (inactive); with SK-OV-3 it was > 100 µM (inactive); in the experiment with SK-MEL-28 it was 44.6 µM (inactive). In addition, the GI50 was 96.8 µM (inactive) in the experiment on NCI/ADR-RES and > 67 µM (inactive) in the experiment with Hs-578T.

`Oc1cc(Br)cc2cccnc12`: the GI50 is 3.17 µM (inactive) in the experiment with PC-3; 1.37 µM (inactive) with M14; 2.05 µM (inactive) in the experiment on RXF 393; 2.1 µM (inactive) in the experiment with SN12C; 28.2 µM (inactive) in the experiment on HCC 2998; 1.58 µM (inactive) in the experiment on U-251. For the same compound, the GI50 is 1.29 µM (inactive) with OVCAR-8; 1.25 µM (inactive) in the experiment on OVCAR-4; 1.71 µM (inactive) in the experiment with IGROV-1; 31.5 µM (inactive) in the experiment with TK-10; 9.91 µM (inactive) in the experiment with DU-145; 0.237 µM (active) in the experiment on HL-60. In addition, the GI50 with 786-0 is 9.51 µM (inactive); in the experiment with SNB-75, 15.2 µM (inactive); in the experiment on NCI-H226, 8.41 µM (inactive); with HOP-62 it was 5.31 µM (inactive); in the experiment with SK-OV-3, 27.6 µM (inactive); with SK-MEL-28, 17.3 µM (inactive). Moreover, the GI50 in the experiment with NCI/ADR-RES is 1.25 µM (inactive); in the experiment with Hs-578T, 1.7 µM (inactive).

As for `CCOC(=O)C(=C(SC)SC)c1nn2c(=O)cc(C)nc2s1`, the GI50 in the experiment on PC-3 was 23.3 µM (inactive); in the experiment with M14, 15.9 µM (inactive); in the experiment with RXF 393, 22.6 µM (inactive); in the experiment on SN12C, 33.1 µM (inactive); in the experiment with HCC 2998 it was 18.8 µM (inactive); with U-251 it was 23.6 µM (inactive). Besides, the GI50 is 23.8 µM (inactive) in the experiment with OVCAR-8; 28.5 µM (inactive) in the experiment with OVCAR-4; 20.9 µM (inactive) with IGROV-1; 23.4 µM (inactive) in the experiment with TK-10; 16.5 µM (inactive) in the experiment on DU-145; 17.4 µM (inactive) with HL-60. In addition, the GI50 is 19.1 µM (inactive) in the experiment with 786-0; 31.4 µM (inactive) in the experiment with SNB-75; 21.4 µM (inactive) with NCI-H226; > 100 µM (inactive) in the experiment with HOP-62; 69.7 µM (inactive) in the experiment with SK-OV-3; 17.1 µM (inactive) in the experiment with SK-MEL-28. Further, the GI50 was 36.5 µM (inactive) in the experiment with NCI/ADR-RES and 43.9 µM (inactive) in the experiment on Hs-578T.

As to `O=C(C(Cl)Cl)N(O)c1ccccc1OCc1ccccc1`, the GI50 with PC-3 is 27.8 µM (inactive); in the experiment on M14 it was > 100 µM (inactive); in the experiment with RXF 393, 86.3 µM (inactive); in the experiment on SN12C, 49.2 µM (inactive); with HCC 2998 it was 1.9 µM (inactive); in the experiment on U-251, 38.5 µM (inactive). The GI50 in the experiment with OVCAR-8 is 8.95 µM (inactive); in the experiment with OVCAR-4 it was 26.6 µM (inactive); in the experiment with IGROV-1 it was 68.2 µM (inactive); in the experiment on TK-10, 56 µM (inactive); in the experiment on DU-145, 17 µM (inactive); in the experiment with HL-60, 27.6 µM (inactive). Also, the GI50 in the experiment with 786-0 is 83.2 µM (inactive); in the experiment with SNB-75, 29.4 µM (inactive); in the experiment on NCI-H226 it was 78.3 µM (inactive); with HOP-62 it was > 100 µM (inactive); with SK-OV-3, > 100 µM (inactive); in the experiment with SK-MEL-28, 37.4 µM (inactive). Moreover, the GI50 in the experiment with NCI/ADR-RES was 22.8 µM (inactive); with Hs-578T it was 19.5 µM (inactive).

The values are drawn from ChEMBL document CHEMBL1201862, “PubChem BioAssay data set” (2004).
